Assay results as given in ChEMBL document CHEMBL4842390, “Amino-Heterocycle Tetrahydroisoquinoline CXCR4 Antagonists with Improved ADME Profiles via Late-Stage Buchwald Couplings” (ACS Med Chem Lett, 2021).

Assays:
Cytochrome P450 2D6 = Cytochrome P450 2D6 (Homo sapiens, UniProt P10635); assay: Inhibition of human recombinant CYP2D6 expressed in insect cells using AMMC as substrate preincubated for 30 mins followed by NADPH regenerating system addition and measured after 45 mins by fluorescence based assay; format: ADME
[1] = Metabolic stability in rat liver microsomes assessed as parent compound remaining incubated for 10 mins in presence of NADPH; format: ADME, Microsome; details: read-out: Stabilty
Cytochrome P450 3A4 = Cytochrome P450 3A4 (Homo sapiens, UniProt P08684); assay: Inhibition of CYP3A4 (unknown origin); format: ADME
[2] = molecular target: C-X-C chemokine receptor type 4 (Homo sapiens, UniProt P61073); assay: Antagonist activity at CXCR4 receptor in human CCRF-CEM cells assessed as inhibition of SDF-1alpha-induced calcium release preincubated for 25 mins followed by SDF-1alpha addition and monitered for 90 sec; format: functional, cell-based
[3] = Permeability of the compound at pH 7.4 incubated for 4 hrs by PAMPA; format: ADME; details: read-out: permeability
cells = details: Homo sapiens, CCRF-CEM
Description: Antagonist activity at muscarinic acetylcholine receptor in human CCRF-CEM cells assessed as inhibition of acetylcholine-induced calcium release preincubated for 25 mins followed by acetylcholine addition and monitered for 90 sec

[4] = Metabolic stability in human liver microsomes assessed as parent compound remaining incubated for 10 mins in presence of NADPH; format: ADME, Microsome; details: read-out: Stabilty
[5] = Metabolic stability in mouse liver microsomes assessed as parent compound remaining incubated for 10 mins in presence of NADPH; format: ADME, Microsome; details: read-out: Stabilty
Cytochrome P450 2C9 = Cytochrome P450 2C9 (Homo sapiens, UniProt P11712); assay: Inhibition of CYP2C9 (unknown origin); format: ADME
[6] = AUC (0 to 8 hrs) in CD-1 mouse at 30 mg/kg, po or at 3 mg/kg, iv measured up to 8 hrs by UPLC-MS/MS analysis; format: ADME, organism-based; set-up: dose 30 mg/kg, time <=8; details: in vivo
[7] = Oral bioavailability in CD-1 mouse at 30 mg/kg measured upto 8 hrs by UPLC-MS/MS analysis; format: ADME, organism-based; details: in vivo
[8] = Half life in CD-1 mouse at 30 mg/kg, po or at 3 mg/kg, iv by UPLC-MS/MS analysis; details: in vivo
[9] = Volume of distribution in CD-1 mouse at 30 mg/kg, po or at 3 mg/kg, iv by UPLC-MS/MS analysis; format: ADME, organism-based; details: in vivo

Sequence of Cytochrome P450 3A4 (P08684 whole entry): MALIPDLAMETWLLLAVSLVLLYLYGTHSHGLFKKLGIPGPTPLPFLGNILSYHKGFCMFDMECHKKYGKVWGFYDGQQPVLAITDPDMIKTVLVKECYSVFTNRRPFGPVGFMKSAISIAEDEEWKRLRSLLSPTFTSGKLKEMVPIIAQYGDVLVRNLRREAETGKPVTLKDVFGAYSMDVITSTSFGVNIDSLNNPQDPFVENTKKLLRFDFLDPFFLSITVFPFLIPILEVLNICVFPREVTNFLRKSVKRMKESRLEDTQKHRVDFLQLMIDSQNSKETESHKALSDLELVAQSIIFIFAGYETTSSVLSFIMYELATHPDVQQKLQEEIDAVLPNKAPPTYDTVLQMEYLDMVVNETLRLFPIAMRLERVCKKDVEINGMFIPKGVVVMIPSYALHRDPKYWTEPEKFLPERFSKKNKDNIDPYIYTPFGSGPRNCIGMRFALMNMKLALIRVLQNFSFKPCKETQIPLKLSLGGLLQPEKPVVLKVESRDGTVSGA
Sequence of Cytochrome P450 2D6 (P10635 whole entry): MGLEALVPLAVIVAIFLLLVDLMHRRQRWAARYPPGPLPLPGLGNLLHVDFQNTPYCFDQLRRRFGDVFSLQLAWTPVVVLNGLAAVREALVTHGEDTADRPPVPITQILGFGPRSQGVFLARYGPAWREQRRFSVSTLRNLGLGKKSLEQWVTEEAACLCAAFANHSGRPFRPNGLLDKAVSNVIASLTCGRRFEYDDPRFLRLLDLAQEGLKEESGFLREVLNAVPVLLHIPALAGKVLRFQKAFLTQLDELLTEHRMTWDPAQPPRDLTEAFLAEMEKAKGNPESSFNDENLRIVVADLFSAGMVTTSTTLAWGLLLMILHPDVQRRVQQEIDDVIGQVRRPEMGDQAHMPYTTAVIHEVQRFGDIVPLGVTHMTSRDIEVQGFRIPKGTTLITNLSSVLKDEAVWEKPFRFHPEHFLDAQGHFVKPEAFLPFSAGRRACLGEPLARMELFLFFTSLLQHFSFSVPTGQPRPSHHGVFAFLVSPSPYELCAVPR
Sequence of C-X-C chemokine receptor type 4 (P61073 whole entry): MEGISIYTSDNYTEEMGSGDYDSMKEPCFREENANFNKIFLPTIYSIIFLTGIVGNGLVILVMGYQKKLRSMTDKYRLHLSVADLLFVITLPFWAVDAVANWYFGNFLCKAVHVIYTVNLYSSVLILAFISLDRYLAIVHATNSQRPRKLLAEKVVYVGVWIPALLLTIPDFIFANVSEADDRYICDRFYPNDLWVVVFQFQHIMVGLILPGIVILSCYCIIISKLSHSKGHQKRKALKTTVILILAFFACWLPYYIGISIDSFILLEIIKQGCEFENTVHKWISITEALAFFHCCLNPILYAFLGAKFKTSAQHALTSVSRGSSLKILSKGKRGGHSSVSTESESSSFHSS
Sequence of Cytochrome P450 2C9 (P11712 whole entry): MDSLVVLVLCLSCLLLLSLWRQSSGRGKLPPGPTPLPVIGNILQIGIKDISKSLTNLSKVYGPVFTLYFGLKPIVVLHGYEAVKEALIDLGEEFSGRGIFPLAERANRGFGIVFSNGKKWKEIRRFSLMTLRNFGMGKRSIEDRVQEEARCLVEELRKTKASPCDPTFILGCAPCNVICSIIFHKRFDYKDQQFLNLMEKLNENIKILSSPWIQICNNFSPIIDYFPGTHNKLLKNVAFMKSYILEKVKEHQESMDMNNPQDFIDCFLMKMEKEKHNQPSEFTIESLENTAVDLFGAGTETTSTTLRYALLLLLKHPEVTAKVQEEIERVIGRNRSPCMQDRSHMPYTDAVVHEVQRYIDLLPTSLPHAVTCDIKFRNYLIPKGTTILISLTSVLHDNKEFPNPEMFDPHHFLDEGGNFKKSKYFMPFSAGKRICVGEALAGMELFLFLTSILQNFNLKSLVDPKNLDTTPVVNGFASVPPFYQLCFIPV

Compound	IC50 (Cytochrome P450 2D6) [µM]	remaining at 10 min [1] [%]	IC50 (Cytochrome P450 3A4) [µM]	IC50 [2] [µM]	Papp at 4 h [3] [nm/s]	IC50 (cells) [µM]	remaining at 10 min [4] [%]	remaining at 10 min [5] [%]	IC50 (Cytochrome P450 2C9) [µM]	AUC(0-t) [6] [µg·h/mL]	bioavailability [7] [%]	half-life [8] [h]	Vd [9] [L/kg]
CN(C[C@H]1Cc2c(cccc2N2C[C@H]3CCN(C)[C@H]3C2)CN1)[C@H]1CCCc2cccnc21	17.3	11.2	> 20	0.0187	19	2.9	97.6	–	–	–	–	–	–
CN(C)C1CCN(c2cccc3c2C[C@H](CN(C)[C@H]2CCCc4cccnc42)NC3)CC1	> 20	52.4	> 20	0.0359	44	> 16.7	78.4	70.2	6.67	–	–	–	–
CN1C[C@@H]2CN(c3cccc4c3C[C@H](CN(C)[C@H]3CCCc5cccnc53)NC4)C[C@@H]2C1	> 20	35.3	> 20	0.00956	5	> 33.3	100	32.9	–	–	–	–	–
CN(C[C@H]1Cc2c(cccc2NC2CCNCC2)CN1)[C@H]1CCCc2cccnc21	> 20	9.79	> 20	0.0181	–	> 16.7	75	10.9	–	–	–	–	–
CN(C)C1CCN(c2cccc3c2C[C@H](CN(C)[C@H]2CCCc4cccnc42)NC3)C1 (single isomer, unassigned; 36)	3.67	3.88	> 20	0.0104	14	> 5.56	–	28.2	–	–	–	–	–
CN(C[C@H]1Cc2c(cccc2N2CCC(N)CC2)CN1)[C@H]1CCCc2cccnc21	3.96	38.4	> 20	0.0334	–	> 33.3	80.8	70.3	–	–	–	–	–
CN(C)C1CCN(c2cccc3c2C[C@H](CN(C)[C@H]2CCCc4cccnc42)NC3)C1 (single isomer, unassigned; 37)	15.4	4.55	> 20	0.0109	16	12.3	67.5	18.5	–	–	–	–	–
NCCCCN(Cc1nc2ccccc2[nH]1)[C@H]1CCCc2cccnc21 [MAVORIXAFOR]	–	–	–	–	–	–	–	–	–	0.101	2.4	3.1	32.2
CN1CC[C@H]2CN(c3cccc4c3C[C@H](CN(C)[C@H]3CCCc5cccnc53)NC4)C[C@H]21	18.6	1.78	> 20	0.0114	9	11.9	87.3	24	–	–	–	–	–
CN(C[C@H]1Cc2c(cccc2N2C[C@H]3CNC[C@H]3C2)CN1)[C@H]1CCCc2cccnc21	7.81	38.1	> 20	0.0103	–	6.39	86.7	54.7	–	–	–	–	–
CN(C[C@H]1Cc2c(cccc2N[C@H]2CC[C@H](N)CC2)CN1)[C@H]1CCCc2cccnc21	> 20	75	> 20	–	–	0.826	100	100	–	–	–	–	–
CN(C[C@@H]1Cc2c(cccc2NC2CCNCC2)CN1)[C@H]1CCCc2cccnc21	> 20	26.2	> 20	1.67	–	> 16.7	79.9	12.4	–	–	–	–	–
CN1CCC(N(C)c2cccc3c2C[C@H](CN(C)[C@H]2CCCc4cccnc42)NC3)CC1	> 20	6.52	> 20	0.0134	10	> 16.7	88.8	–	–	–	–	–	–
